# Source: article PMC11943507 (Marine Drugs, 2025)
# Values joined by “and” are separate entries in the source; they are usually repeats but may differ in a detail not shown here. Equal entries are not always repeated. “Also recorded” adds a separate entry of the source. Where two headings read alike, the source gives them in different places.
# Tests used:
# hNav1.1 [1] = molecular target: T1, hNav1.1 (Homo sapiens, UniProt P35498); type: cell-based
# Nav1.1 = details: cited from earlier work
# hNav1.1 [2] = molecular target: T1, hNav1.1
# hNav1.1 [3] = molecular target: T1, hNav1.1; test: cell-based; type: cell-based
# Nav1.6 = details: cited from earlier work
# Nav1.7 = details: cited from earlier work
# hNav1.1 [4] = molecular target: T1, hNav1.1; type: cell-based; remark: listed apart in the source
# hNav1.1 [5] = molecular target: T1, hNav1.1; type: cell-based; remark: listed apart in the source
smiles,measurement,setting,value
"NC1=N[C@H](O)[C@H]2[C@H]3O[C@]4(O)O[C@@H]([C@@H](O)[C@@]2(N1)[C@@H]4O)[C@]3(O)CO [TTX, tetrodotoxin]",IC50,hNav1.1 [1],0.0184 µM
same,inhibition of the channel-opening effect of 30 μM veratridine,hNav1.1 [1],almost completely inhibited
same,suppression of hNav1.1 current signal,hNav1.1 [2],almost completely suppressed
same,IC50,hNav1.1 [2]; read-out: IC50 determined by patch clamp,0.00327 µM and ~0.00327 µM
COc1ccc(C(=O)O[C@H]2CC[C@@]3(C)[C@@H]4CC[C@H]5[C@]6(O)C[C@H](O)[C@@]7(O)[C@@H](CN8C[C@@H](C)CC[C@H]8[C@@]7(C)O)[C@]6(O)C[C@@]53O[C@]24O)cc1OC [veratridine],fluorescence signal relative to the maximum fluorescence signal,hNav1.1 [3],approximately 80%
same,EC50,hNav1.1 [3]; EC50,~24 µM and 24 µM
same,peak amplitude of the sodium current,Nav1.6,enhanced
same,peak current,Nav1.6,suppressed
same,EC50,"Nav1.7; read-out: EC50, tail and sustained currents",9.53 µM
same,IC50,"Nav1.7; read-out: IC50, inhibitory effect on the peak current",18.4 µM
"C=C1[C@@H](O)[C@@H]2O[C@]3(CC[C@H](/C=C/[C@@H](C)[C@@H]4CC(C)=C[C@@]5(O[C@H](C[C@@](C)(O)C(=O)O)CC[C@H]5O)O4)O3)CC[C@H]2O[C@@H]1[C@@H](O)C[C@H](C)[C@H]1O[C@@]2(CC[C@H]1C)OCCC[C@H]2C [DTX1, dinophysistoxin 1]",fluorescence signal in agonist mode concentration-response,hNav1.1 [3],no significant increase
same,"fluorescence intensity stimulated by 30 μM veratridine, inhibition mode concentration-response",hNav1.1 [1],not significantly inhibited
same,inhibitory effect in initial screening,hNav1.1 [4],no significant inhibition; also recorded: did not exhibit any potential agonist or inhibitor activity
same,agonist activity in initial screening,hNav1.1 [5],did not exhibit any potential agonist or inhibitor activity
